Experimental data published in patent US20160251403A1, “PEPTIDE COMBINATIONS AND USES THEREOF IN TREATING DUST MITE ALLERGY” (ALK-ABELLO A/S, priority 2013, published 2016).
Where a chain is given by its changes, count along the chain named. No end group written: not given here.

Key:
DRB1_0101 = DRB1_0101 (Homo sapiens, UniProt P01903+P01911, A100R/D57E/F55L/F60I/F76Y/I96L/L162R/M171V/P40L/Q125E/R42F/V115G/Y59C); assay: Competitive MHC class II binding assay, DRB1_0101;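 note: competition against a radiolabeled probe peptide (0.1–1 nM) for purified HLA class II protein over 2–4 days, bound counts read after antibody capture, six competitor levels across 100,000-fold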
DRB1_0405 = DRB1_0405 (Homo sapiens, UniProt P01903+P01911, A100R/A169T/D86S/F76Y/I96L/K127E/L162R/M171V/N62H/P40V/Q125Y/R42H/S133A/S149N/S66Y/V115G/V209L/W38E); assay: Competitive MHC class II binding assay, DRB1_0405
DRB1_0701 = DRB1_0701 (Homo sapiens, UniProt P01903+P01911, A100R/A102G/A103Q/D57E/D86V/E43K/F76Y/K127E/L162R/M171V/P40G/Q125H/Q99D/R33Q/R42Y/R54Q/S133A/S66F/T210M/V115G/Y107V/Y59L/Y89S); assay: Competitive MHC class II binding assay, DRB1_0701;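 note: displacement of a radiolabeled reference peptide from purified HLA class II protein, with complex-bound radioactivity counted after 2–4 days of incubation and six concentrations spanning a 100,000-fold range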
DRB1_0802 = DRB1_0802 (Homo sapiens, UniProt P01903+P01911, A100R/A103L/A169T/F76Y/H45Y/I96F/K41T/L162R/M171V/P40S/Q125H/Q178H/Q39Y/Q99D/R218S/R42G/S66Y/V115G/W38E); assay: Competitive MHC class II binding assay, DRB1_0802
DRB1_0901 = DRB1_0901 (Homo sapiens, UniProt P01903+P01911, A100R/A103E/D57H/D86V/F55Y/F60I/F76Y/I96F/K127E/L162R/M171V/P40D/Q125H/Q99R/R33Q/R42F/S133A/S66N/T210M/V115G/W38K/Y107V/Y59G/Y89S); assay: Competitive MHC class II binding assay, DRB1_0901;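 note: displacement of a radiolabeled probe peptide from purified HLA class II protein, bound counts read after two to four days incubation, six concentrations spanning 100,000-fold, unlabeled probe as reference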
DRB1_1101 = DRB1_1101 (Homo sapiens, UniProt P01903+P01911, A100R/A169T/A87E/I96F/K41T/L162R/M171V/P40S/Q125H/Q178H/Q39Y/Q99D/R42S/S66Y/T262R/V115G/W38E); assay: Competitive MHC class II binding assay, DRB1_1101
DRB1_1201 = DRB1_1201 (Homo sapiens, UniProt P01903+P01911, A100R/A169T/D57E/D86V/F55L/H45Y/K41T/L162R/M171V/P40S/Q125H/Q178H/Q39Y/Q99D/R42G/S66L/T262R/V114A/V67L/W38E/Y59H/Y61H/Y89S); assay: Competitive MHC class II binding assay, DRB1_1201
DRB1_1302 = DRB1_1302 (Homo sapiens, UniProt P01903+P01911, A100E/A169T/K41T/L162R/M171V/P40S/Q125H/Q178H/Q39Y/Q99D/R42S/S66N/T262R/V115G/W38E/Y61H); assay: Competitive MHC class II binding assay, DRB1_1302;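 note: purified HLA class II protein incubated two to four days with a radiolabeled reference binder and test peptide at six concentrations over a 100,000-fold range, complex-bound radioactivity counted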
DRB1_1501 = DRB1_1501 (Homo sapiens, UniProt P01903+P01911); assay: Competitive MHC class II binding assay, DRB1_1501
DRB3_0202 = DRB3_0202 (Homo sapiens, UniProt P01903+P79483, A212P/D57E/F66Y/L67A/R103Q/R218S/R40L/S89Y/T80R/V86D/Y55F/Y59H); assay: Competitive MHC class II binding assay, DRB3_0202
DRB4_0101 = DRB4_0101 (Homo sapiens, UniProt P01903+P13762, G164S); assay: Competitive MHC class II binding assay, DRB4_0101
DRB5_0101 = DRB5_0101 (Homo sapiens, UniProt P01903+Q30154); assay: Competitive MHC class II binding assay, DRB5_0101
DPA10103-DPB10201 = target: T1, DPA10103-DPB10201 (Homo sapiens, UniProt P04440+P20036, A65V/A84D/A85E/K98E); assay: Competitive MHC class II binding assay, DPA10103-DPB10201
T1 sequence (P20036 29-260): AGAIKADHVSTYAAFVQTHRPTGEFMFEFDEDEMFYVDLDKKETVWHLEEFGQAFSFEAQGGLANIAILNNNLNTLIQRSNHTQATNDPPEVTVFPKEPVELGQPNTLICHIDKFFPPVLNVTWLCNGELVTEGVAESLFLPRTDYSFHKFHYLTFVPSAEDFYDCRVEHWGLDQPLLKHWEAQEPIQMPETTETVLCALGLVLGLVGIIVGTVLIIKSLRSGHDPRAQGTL
T1 sequence (P04440 30-258 A65V/A84D/A85E/K98E): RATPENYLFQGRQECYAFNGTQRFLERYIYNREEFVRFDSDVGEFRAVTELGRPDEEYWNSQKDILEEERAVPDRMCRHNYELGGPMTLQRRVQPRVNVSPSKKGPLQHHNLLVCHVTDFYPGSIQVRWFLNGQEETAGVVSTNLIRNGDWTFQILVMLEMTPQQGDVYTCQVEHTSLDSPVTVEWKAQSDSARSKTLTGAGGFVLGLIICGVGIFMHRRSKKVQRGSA

DPA10103-DPB10401 = target: T2, DPA10103-DPB10401 (Homo sapiens, UniProt P04440+P20036); assay: Competitive MHC class II binding assay, DPA10103-DPB10401
T2 sequence (P20036 29-260): T1 sequence (P20036 29-260)
T2 sequence (P04440 30-258): T1 sequence (P04440 30-258 A65V/A84D/A85E/K98E) with V36A, D55A, E56A, E69K

DQA10501-DQB10201 = DQA10501-DQB10201 (Homo sapiens, UniProt P01909+P01920, A45G/A70V/D89A/E106A/E77G/E98D/H199R/L107V/N214S/P84L/P87L/T103K/T109R/T172A/T60S/V78E/V99I/Y58L/Y62S/Y69I/Y79F); assay: Competitive MHC class II binding assay, DQA10501-DQB10201
DQA10501-DQB10301 = DQA10501-DQB10301 (Homo sapiens, UniProt P01909+P01920); assay: Competitive MHC class II binding assay, DQA10501-DQB10301
DQA10102-DQB10602 = assay: Competitive MHC class II binding assay, DQA10102-DQB10602; details: read-out: HLA-DQA10102-DQB10602; positive binding at cutoff 1000 nM
DRB1_0301 = DRB1_0301 (Homo sapiens, UniProt P01903+P01911, A100K/A102G/A103R/A169T/F55Y/I96L/K41T/L162R/M171V/P40S/Q125H/Q178H/Q39Y/R42S/S66N/T106N/T262R/W38E/Y61H); assay: Competitive MHC class II binding assay, DRB1_0301
DRB1_0401 = DRB1_0401 (Homo sapiens, UniProt P01903+P01911, A100K/A169T/F76Y/I96L/K127E/L162R/M171V/N62H/P40V/Q125Y/R42H/S133A/S149N/S66Y/V115G/V209L/W38E); assay: Competitive MHC class II binding assay, DRB1_0401
DRB3_0101 = DRB3_0101 (Homo sapiens, UniProt P01903+P79483); assay: Competitive MHC class II binding assay, DRB3_0101

Measured: IC50

CC[C@H](C)[C@H](NC(=O)CNC(=O)[C@@H](N)CCCNC(=N)N)C(=O)N[C@@H](CCC(=O)O)C(=O)N[C@@H](Cc1ccc(O)cc1)C(=O)N[C@H](C(=O)N[C@@H](CCC(N)=O)C(=O)N[C@@H](Cc1c[nH]cn1)C(=O)N[C@@H](CC(N)=O)C(=O)NCC(=O)N[C@H](C(=O)N[C@H](C(=O)N[C@@H](CCC(N)=O)C(=O)N[C@@H](CCC(=O)O)C(=O)N[C@@H](CO)C(=O)N[C@@H](Cc1ccc(O)cc1)C(=O)N[C@@H](Cc1ccc(O)cc1)C(=O)N[C@@H](CCCNC(=N)N)C(=O)N[C@@H](Cc1ccc(O)cc1)C(=O)N[C@H](C(=O)N[C@@H](C)C(=O)N[C@@H](CCCNC(=N)N)C(=O)O)C(C)C)C(C)C)C(C)C)[C@@H](C)CC [pep-123]
not listed: DRB1_0301 | DRB1_0401 | DRB3_0101
< 1000 nM: all other assays above

CC[C@H](C)[C@H](NC(=O)[C@H](CCSC)NC(=O)[C@H](CCCNC(=N)N)NC(=O)[C@H](Cc1ccccc1)NC(=O)[C@H](CCCCN)NC(=O)[C@@H](NC(=O)[C@H](CCSC)NC(=O)[C@H](CC(N)=O)NC(=O)[C@H](Cc1ccc(O)cc1)NC(=O)[C@@H](NC(=O)[C@@H](N)CCC(=O)O)[C@@H](C)CC)C(C)C)C(=O)N[C@@H](C)C(=O)NCC(=O)N[C@@H](CCC(N)=O)C(=O)N[C@@H](CCC(=O)O)C(=O)O [pep-117]
< 1000 nM: DPA10103-DPB10201 | DPA10103-DPB10401

IEYIQHNGVVQESYYRYVAR [pep-049]
not listed: DRB1_0101 | DRB1_0802 | DRB4_0101
< 1000 nM: all other assays above
